For assay [1], the target named is T1, 15-LOX-2 (Homo sapiens, UniProt O15296).
T1 construct: His6 (N); made in house
T1 sequence (O15296 1-676): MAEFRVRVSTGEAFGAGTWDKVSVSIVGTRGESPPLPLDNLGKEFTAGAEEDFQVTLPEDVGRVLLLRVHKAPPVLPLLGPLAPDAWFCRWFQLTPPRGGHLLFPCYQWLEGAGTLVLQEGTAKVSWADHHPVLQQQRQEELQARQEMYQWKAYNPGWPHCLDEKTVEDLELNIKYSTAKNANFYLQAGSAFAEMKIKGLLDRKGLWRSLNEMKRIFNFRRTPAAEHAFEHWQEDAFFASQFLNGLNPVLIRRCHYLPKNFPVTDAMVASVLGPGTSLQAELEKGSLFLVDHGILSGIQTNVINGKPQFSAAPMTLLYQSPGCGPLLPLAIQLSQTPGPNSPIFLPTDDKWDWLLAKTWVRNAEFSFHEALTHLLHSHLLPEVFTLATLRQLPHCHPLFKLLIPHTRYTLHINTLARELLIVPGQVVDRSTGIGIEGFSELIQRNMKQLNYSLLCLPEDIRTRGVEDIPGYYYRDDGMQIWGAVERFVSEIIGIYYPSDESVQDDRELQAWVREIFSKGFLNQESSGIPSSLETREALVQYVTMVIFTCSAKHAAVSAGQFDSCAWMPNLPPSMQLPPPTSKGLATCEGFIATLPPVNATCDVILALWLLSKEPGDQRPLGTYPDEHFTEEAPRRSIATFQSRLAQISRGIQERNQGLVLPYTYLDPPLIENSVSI
Put plainly: Lipoxygenase UV-Vis assay, 15-LOX-2. Format: biochemical. Conditions: for inhibition at 25 µM: read-out: % Inhibition at 25 μM; for potency relative to parent compound: 15-LOX-2. Here is the method: The reactions were initiated by adding 200 nM 15-LOX-2, 30 nM 12-LOX, 40 nM 15-LOX-1, or approximately 100–300 nM (5–10 µL) of 5-LOX crude extract to a cuvette with 2 mL reaction buffer, constantly stirred using a magnetic stir bar at room temperature (22°C). Reaction buffers used for various LOX isozymes were as follows: 25 mM HEPES (pH 7.3), 0.3 mM CaCl2, 0.1 mM EDTA, 0.2 mM ATP, 0.01% Triton X-100, 10 µM AA for the crude, ammonium sulfate precipitated 5-LOX; and 25 mM HEPES (pH 7.5), 0.01% Triton X-100, 10 µM AA for 15-LOX-2, 15-LOX-1, and 12-LOX. The substrate concentration was quantitatively determined by allowing the enzymatic reaction to go to completion in the presence of 15-LOX-2. […] The data were then plotted against inhibitor concentration, followed by a hyperbolic saturation curve fit (assuming total enzyme concentration [E]≪IC50). […] All inhibitors were stored at −20°C in DMSO. NDGA was utilized as positive control for the selectivity assays for the various LOX isozymes.
Once the two lead compounds were identified, a limited series of related compounds were identified and screened to investigate structure/activity relationships (Figure 3). […] We are currently exploring this line of inquiry.

Assay [2] has as its target T1, 15-LOX-2. Particulars: control molecules known not to inhibit 15-LOX-2; cited from earlier work.
[3] abbreviates: 25 µM inhibitor, 15-LOX-2, 10 µM AA.

Consider 18 compounds from paper PMC4128814, “A High Throughput Screen Identifies Potent and Selective Inhibitors to Human Epithelial 15-Lipoxygenase-2” (PLoS ONE, 2014).

Where two headings read alike, the source gives them in different places.

On to `CCC1CCC(c2nnc(-c3ccc([N+](=O)[O-])cc3)o2)CC1` (stereo not shown) [MLS000723362], for which the inhibition at 25 µM at 15-LOX-2 [1] (setting [3]) was determined as 5%. Also, the IC50 on 15-LOX-2 [1] (read-out: 15-LOX-2 IC50) is more than 100 µM.

With `O=C(CCc1nnc(-c2ccccc2)o1)c1ccc(Cl)cc1` [MLS001019001], the inhibition at 25 µM at 15-LOX-2 [1] (setting [3]) came out at 6%. The IC50 at 15-LOX-2 [1] (read-out: 15-LOX-2 IC50) is more than 100 µM.

Take `Clc1ccc(-c2nnc(CCc3ccccc3)o2)c(Cl)c1` [MLS000325223]: the inhibition at 25 µM on 15-LOX-2 [1] (setting [3]) amounted to 4%. The IC50 on 15-LOX-2 [1] (read-out: 15-LOX-2 IC50) was more than 100 µM.

As to `CCCc1nnc(-c2ccc(OC)cc2)o1` [MLS000756111], the inhibition at 25 µM on 15-LOX-2 [1] (setting [3]) was found to be 0%. In addition, the IC50 at 15-LOX-2 [1] (read-out: 15-LOX-2 IC50) was more than 100 µM.

With `O=C(c1nnc(-c2ccccc2)o1)C1CC1` [MLS001033918], the inhibition at 25 µM at 15-LOX-2 [1] (setting [3]) came to 3%. Further, at 15-LOX-2 [1] (read-out: 15-LOX-2 IC50), the IC50 is more than 100 µM.

Regarding `CCC1CCC(c2nnc(-c3ccc(Br)cc3)o2)CC1` (stereo not shown) [MLS000578382], the inhibition at 25 µM on 15-LOX-2 [1] (setting [3]) was 28%. Moreover, the IC50 on 15-LOX-2 [1] (read-out: 15-LOX-2 IC50) was more than 50 µM.

Turning to `Clc1ccc(CSc2ncn(-c3ccccc3)n2)cc1` [MLS000550104], the inhibition at 25 µM on 15-LOX-2 [1] (setting [3]) was 94%. On 15-LOX-2 [1], the “potency relative to parent compound” value is recorded as “approximately 4 fold”. The IC50 at 15-LOX-2 [1] (read-out: 15-LOX-2 IC50) stood at 0.74 µM.

As to `c1ccc(CSc2ncn(-c3ccccc3)n2)cc1` [MLS000108825], the inhibition at 25 µM on 15-LOX-2 [1] (setting [3]) turned out to be 56%. Further, the IC50 on 15-LOX-2 [1] (read-out: 15-LOX-2 IC50) worked out at 6.4 µM.

As to `Clc1ccc(-c2nnc(C3CC3)o2)cc1` [MLS000859524], on 15-LOX-2 [1] (setting [3]), the inhibition at 25 µM was found to be 4%. Also, on 15-LOX-2 [1] (read-out: 15-LOX-2 IC50), the IC50 is more than 100 µM.

For `O=[N+]([O-])c1cc(-c2nnc(C34CC5CC(CC(C5)C3)C4)o2)cc([N+](=O)[O-])c1` [MLS000544312], at 15-LOX-2 [1], the IC50 is more than 100 µM and the inhibition at 25 µM turned out to be 0%.

`Clc1cccc(CSc2ncn(-c3ccccc3)n2)c1` [MLS000594591]: the inhibition at 25 µM at 15-LOX-2 [1] (setting [3]) was determined as 65%. Also, at 15-LOX-2 [1] (read-out: 15-LOX-2 IC50), the IC50 is 5.4 µM.

Regarding `CC(=O)NC(c1cccs1)c1cc(Br)c2cccnc2c1O` (stereo not shown) [ML127], the IC50 at 15-LOX-2 [2] is more than 100 µM.

`Clc1ccccc1CSc1ncn(-c2ccccc2)n1` [MLS000550113]: the inhibition at 25 µM on 15-LOX-2 [1] (setting [3]) was found to be 53%. The IC50 at 15-LOX-2 [1] (read-out: 15-LOX-2 IC50) was 9 µM.

As for `O=[N+]([O-])c1cccc(-c2nnc(C34CC5CC(CC(C5)C3)C4)o2)c1` [MLS000585389], the inhibition at 25 µM at 15-LOX-2 [1] (setting [3]) stood at 14%. Moreover, on 15-LOX-2 [1] (read-out: 15-LOX-2 IC50), the IC50 was more than 100 µM.

For `O=C(c1nnc(-c2ccc(Cl)cc2)o1)C1CCCC1` [MLS001007221], the inhibition at 25 µM on 15-LOX-2 [1] (setting [3]) is 66%. The “potency relative to parent compound” value on 15-LOX-2 [1] was “comparable activity”. Moreover, on 15-LOX-2 [1] (read-out: 15-LOX-2 IC50), the IC50 came to 1.1 µM.

As to `Cc1ccc(NC(=O)CSc2ncn(-c3ccccc3)n2)cc1C` [MLS000594570], the inhibition at 25 µM at 15-LOX-2 [1] (setting [3]) was determined as 0%. The IC50 at 15-LOX-2 [1] (read-out: 15-LOX-2 IC50) is more than 100 µM.

`CC(=O)Nc1ccc(C(=O)CSc2ncn(-c3ccccc3)n2)cc1` [MLS000108839]: the inhibition at 25 µM at 15-LOX-2 [1] (setting [3]) came out at 0%. For the same compound, the half-inhibitory concentration (IC50) on 15-LOX-2 [1] (read-out: 15-LOX-2 IC50) is more than 100 µM.

Regarding `c1cncc(-c2nnc(C3CCCCC3)o2)c1` [MLS000033229], at 15-LOX-2 [1] (setting [3]), the inhibition at 25 µM came to 4%. Besides, on 15-LOX-2 [1] (read-out: 15-LOX-2 IC50), the IC50 was more than 100 µM.

Usually inhibition stands for the relative decrease from the control value, in per cent. By IC50 is commonly meant the concentration that gives 50% inhibition.
